According to PubChem BioAssay AID1348 (Sanford-Burnham Center for Chemical Genomics, 2008):
The source made the active and inactive calls.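 How the source made its calls: active means cell survival above 50% at 25 µM despite a drug that triggers cell death; inactive means the rest.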

Test system: CSM14.1 staurosporine-induced death rescue, ATPlite, 24 h
Assay: protection against staurosporine-triggered CSM14.1 death, SAR follow-up, selectivity assay for ER stress death inhibitor project, cell-based, undifferentiated CSM14.1, ATP luminescence (AID 1348)
Settings: at 25 µM; hits give high values

Row | SMILES | survival
1 | COc1ccc(C2CC(=O)C3=C(C2)Nc2ccccc2NC3c2ccccc2C(F)(F)F)cc1OC (stereo unspecified) | 6% (inactive)
2 | O=C1CC(c2ccccc2)CC2=C1C(c1c(F)cccc1Cl)Nc1ccccc1N2 (stereo unspecified) | 8% (inactive)
3 | CC1(C)CC(=O)C2=C(C1)Nc1ccccc1NC2c1ccc(-c2ccccc2)cc1 (stereo unspecified) | 13% (inactive)
4 | COc1ccc(C2CC(=O)C3=C(C2)Nc2ccccc2NC3c2cccc(C(F)(F)F)c2)cc1OC (stereo unspecified) | 10% (inactive)
5 | COc1ccc(C2CC(=O)C3=C(C2)Nc2ccccc2NC3c2cccc(Oc3ccccc3)c2)cc1OC (stereo unspecified) | 11% (inactive)
6 | COc1ccc(C2CC(=O)C3=C(C2)Nc2ccccc2NC3c2cc(C)ccc2C)cc1 (stereo unspecified) | 9% (inactive)
7 | COc1ccc(C2CC(=O)C3=C(C2)Nc2ccccc2NC3c2cccc(Br)c2)cc1OC (stereo unspecified) | 10% (inactive)
8 | CCOc1cccc(C2Nc3ccccc3NC3=C2C(=O)CC(c2ccc(OC)cc2)C3)c1 (stereo unspecified) | 8% (inactive)
9 | CCOc1cc(C2Nc3ccccc3NC3=C2C(=O)CC(c2ccc(OC)cc2)C3)cc(Cl)c1O (stereo unspecified) | 9% (inactive)
10 | CSc1ccc(C2Nc3ccccc3NC3=C2C(=O)CC(c2ccccc2)C3)cc1 (stereo unspecified) | 8% (inactive)
11 | CCCOc1ccc(C2Nc3ccccc3NC3=C2C(=O)CC(c2ccc(OC)c(OC)c2)C3)cc1 (stereo unspecified) | 12% (inactive)
